Measurements as given in patent US20120178766A1, “FUROPYRIMIDINEDIONE DERIVATIVES AS TRPAI MODULATORS” (priority 2009, published 2012).

Assays:
rat TRPA1 = target: T1, rat TRPA1 (Rattus norvegicus, UniProt Q6RI86); experiment: 45Calcium uptake assay: inhibition of AITC induced cellular uptake of radioactive calcium, rat TRPA1 expressing CHO cells; type: cell-based; settings: AITC 10 μM; for inhibition at 10 µM: 10.0 μM compound, read-out: rat TRPA1 Percentage inhibition at 10.0 μM; for inhibition at 1 µM: read-out: rat TRPA1 Percentage inhibition; for IC50: class symbols
T1 construct: expressed in transfected cells; host or cells: CHO cells (Zeocin selection)
Method in brief: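 CHO cells expressing rat or human TRPA1 were pre-treated with compound for 10 min, then given AITC (30 μM human, 10 μM rat) plus 5 μCi/ml 45Ca2+ for 3 min; final DMSO 0.5%. Lysate radioactivity was counted by scintillation. IC50 came from nonlinear regression of concentration-response curves as % of maximal response.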

human TRPA1 = target: T2, human TRPA1 (Homo sapiens, UniProt O75762); experiment: 45Calcium uptake assay: inhibition of AITC induced cellular uptake of radioactive calcium, human TRPA1 expressing CHO cells; type: cell-based; settings: AITC 30 μM; for inhibition at 1 µM: 1.0 μM compound, read-out: human TRPA1 Percentage inhibition at 1.0 μM; for inhibition at 10 µM: 10.0 μM compound, read-out: human TRPA1 Percentage inhibition at 10.0 μM; for IC50: class symbols
T2 construct: expressed in transfected cells; host or cells: CHO cells (G-418 selection)
Method in brief: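 CHO cells expressing TRPA1 were preincubated 10 min with compound (0.5% DMSO final), then given AITC (30 μM human, 10 μM rat) plus 5 μCi/ml 45Ca2+ for 3 min. Lysate radioactivity measured by scintillation; IC50 obtained by nonlinear regression of % maximal response without antagonist.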

T1 sequence (Q6RI86 whole entry): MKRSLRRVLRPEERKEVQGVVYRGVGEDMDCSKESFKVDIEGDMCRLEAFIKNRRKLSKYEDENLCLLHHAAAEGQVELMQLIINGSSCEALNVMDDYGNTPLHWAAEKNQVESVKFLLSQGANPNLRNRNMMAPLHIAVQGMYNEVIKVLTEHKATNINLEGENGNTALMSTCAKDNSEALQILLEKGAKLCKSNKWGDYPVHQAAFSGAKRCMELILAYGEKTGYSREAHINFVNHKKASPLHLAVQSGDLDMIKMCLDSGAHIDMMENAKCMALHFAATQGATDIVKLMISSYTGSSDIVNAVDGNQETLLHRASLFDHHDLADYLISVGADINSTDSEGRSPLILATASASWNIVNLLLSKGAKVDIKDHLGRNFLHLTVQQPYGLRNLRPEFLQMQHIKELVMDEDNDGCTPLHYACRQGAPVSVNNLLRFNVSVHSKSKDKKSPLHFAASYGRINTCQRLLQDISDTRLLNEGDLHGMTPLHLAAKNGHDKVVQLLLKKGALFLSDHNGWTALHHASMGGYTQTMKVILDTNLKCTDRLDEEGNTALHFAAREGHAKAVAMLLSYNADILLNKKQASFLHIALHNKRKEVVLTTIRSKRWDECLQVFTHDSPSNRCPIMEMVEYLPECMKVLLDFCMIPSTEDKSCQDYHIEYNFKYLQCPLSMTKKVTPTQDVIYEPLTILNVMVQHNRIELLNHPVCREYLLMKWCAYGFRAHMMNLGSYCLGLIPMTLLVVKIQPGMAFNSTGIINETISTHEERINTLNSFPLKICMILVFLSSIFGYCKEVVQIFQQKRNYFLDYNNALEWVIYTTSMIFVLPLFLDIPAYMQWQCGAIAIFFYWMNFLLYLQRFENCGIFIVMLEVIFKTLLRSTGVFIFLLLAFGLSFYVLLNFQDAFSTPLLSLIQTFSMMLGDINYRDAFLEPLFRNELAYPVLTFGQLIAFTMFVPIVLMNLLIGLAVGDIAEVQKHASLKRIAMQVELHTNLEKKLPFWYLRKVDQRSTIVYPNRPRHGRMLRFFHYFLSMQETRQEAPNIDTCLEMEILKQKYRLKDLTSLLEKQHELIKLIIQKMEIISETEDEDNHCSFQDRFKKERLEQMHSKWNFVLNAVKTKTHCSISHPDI
T2 sequence (O75762 whole entry): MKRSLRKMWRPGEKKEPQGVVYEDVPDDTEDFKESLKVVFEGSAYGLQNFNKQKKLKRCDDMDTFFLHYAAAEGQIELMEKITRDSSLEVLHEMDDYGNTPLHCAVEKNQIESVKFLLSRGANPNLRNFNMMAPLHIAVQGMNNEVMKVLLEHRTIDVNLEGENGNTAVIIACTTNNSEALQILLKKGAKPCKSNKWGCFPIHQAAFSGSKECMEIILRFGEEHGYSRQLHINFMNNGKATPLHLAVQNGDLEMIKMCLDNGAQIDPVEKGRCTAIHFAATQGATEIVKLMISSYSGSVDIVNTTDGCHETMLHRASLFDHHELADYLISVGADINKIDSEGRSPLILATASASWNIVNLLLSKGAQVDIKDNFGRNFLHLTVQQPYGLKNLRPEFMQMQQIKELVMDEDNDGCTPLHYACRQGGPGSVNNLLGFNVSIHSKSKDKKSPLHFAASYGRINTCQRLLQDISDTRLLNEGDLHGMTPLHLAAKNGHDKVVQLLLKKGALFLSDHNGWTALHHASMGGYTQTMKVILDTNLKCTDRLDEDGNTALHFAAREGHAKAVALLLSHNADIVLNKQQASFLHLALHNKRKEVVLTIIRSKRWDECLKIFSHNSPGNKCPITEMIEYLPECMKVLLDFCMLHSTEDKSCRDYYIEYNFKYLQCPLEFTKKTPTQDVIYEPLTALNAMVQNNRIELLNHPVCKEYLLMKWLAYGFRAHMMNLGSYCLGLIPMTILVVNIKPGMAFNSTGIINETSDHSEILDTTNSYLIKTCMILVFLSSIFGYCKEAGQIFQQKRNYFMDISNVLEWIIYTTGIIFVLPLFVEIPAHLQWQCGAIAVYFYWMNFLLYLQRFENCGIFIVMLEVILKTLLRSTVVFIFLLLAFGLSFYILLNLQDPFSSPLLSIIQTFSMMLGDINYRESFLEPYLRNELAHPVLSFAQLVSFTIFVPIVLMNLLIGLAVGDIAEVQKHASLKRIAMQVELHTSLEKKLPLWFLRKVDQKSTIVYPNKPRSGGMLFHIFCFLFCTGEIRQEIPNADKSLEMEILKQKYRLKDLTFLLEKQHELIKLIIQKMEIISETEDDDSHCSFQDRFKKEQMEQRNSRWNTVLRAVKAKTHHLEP

Row | Compound | inhibition at 10 µM (rat TRPA1) [%] | inhibition at 1 µM (rat TRPA1) [%] | IC50 (rat TRPA1) [nM] | inhibition at 1 µM (human TRPA1) [%] | inhibition at 10 µM (human TRPA1) [%] | IC50 (human TRPA1) [nM]
1 | Cn1c(=O)c2c(CC(=O)Nc3nc(-c4cc(F)c(OCCC(F)(F)F)c(F)c4)cs3)coc2n(C)c1=O [Example 49, N1-{4-[3,5-Difluoro-4-(3,3,3-trifluoropropoxy)phenyl]-1,3-thiazol-2-yl}-2-(1,3-dimethyl-2,4-dioxo-1,2,3,4-tetrahydrofuro[2,3-d]pyrimidin-5-yl)acetamide] | 97.7 | 86.6 | < 50 | 95.6 | 98.3 | < 50
2 | Cc1oc2c(c1CC(=O)Nc1nc(-c3ccc(C(F)(F)F)cc3)cs1)c(=O)n(C)c(=O)n2C [Example 50, N1-{4-[4-(Trifluoromethyl)phenyl]-1,3-thiazol-2-yl}-2-(1,3,6-trimethyl-2,4-dioxo-1,2,3,4-tetrahydrofuro[2,3-d]pyrimidin-5-yl)acetamide] | 100 | 99.9 | – | 99.6 | 98.3 | –
3 | Cc1oc2c(c1CC(=O)Nc1nc(-c3cccc(C(F)(F)F)c3)cs1)c(=O)n(C)c(=O)n2C [Example 51, N1-{4-[3-(Trifluoromethyl)phenyl]-1,3-thiazol-2-yl}-2-(1,3,6-trimethyl-2,4-dioxo-1,2,3,4-tetrahydrofuro[2,3-d]pyrimidin-5-yl)acetamide] | 100 | 100 | – | 99.8 | 100 | –
4 | Cc1oc2c(c1CC(=O)Nc1nc(-c3cccc(OC(F)(F)F)c3)cs1)c(=O)n(C)c(=O)n2C [Example 52, N1-{4-[3-(Trifluoromethoxy)phenyl]-1,3-thiazol-2-yl}-2-(1,3,6-trimethyl-2,4-dioxo-1,2,3,4-tetrahydrofuro[2,3-d]pyrimidin-5-yl)acetamide] | 100 | 100 | – | 99.1 | 99.2 | –
5 | Cc1oc2c(c1CC(=O)Nc1nc(-c3ccc(OC(F)(F)F)cc3)cs1)c(=O)n(C)c(=O)n2C [Example 53, N1-{4-[4-(Trifluoromethoxy)phenyl]-1,3-thiazol-2-yl}-2-(1,3,6-trimethyl-2,4-dioxo-1,2,3,4-tetrahydrofuro[2,3-d]pyrimidin-5-yl)acetamide] | 100 | 100 | – | 99.7 | 97.3 | –
6 | Cc1oc2c(c1CC(=O)Nc1nc(-c3ccc(Cl)c(Cl)c3)cs1)c(=O)n(C)c(=O)n2C [Example 54, N1-[4-(3,4-Dichlorophenyl)-1,3-thiazol-2-yl]-2-(1,3,6-trimethyl-2,4-dioxo-1,2,3,4-tetrahydrofuro[2,3-d]pyrimidin-5-yl)acetamide] | – | – | 50 to 100 | – | – | < 50
7 | Cc1oc2c(c1CC(=O)Nc1nc(-c3cccc(Cl)c3Cl)cs1)c(=O)n(C)c(=O)n2C [Example 55, N1-[4-(2,3-Dichlorophenyl)-1,3-thiazol-2-yl]-2-(1,3,6-trimethyl-2,4-dioxo-1,2,3,4-tetrahydrofuro[2,3-d]pyrimidin-5-yl)acetamide] | 100 | 97.7 | – | 95.8 | 99 | –
8 | Cc1oc2c(c1CC(=O)Nc1nc(-c3ccc(F)c(C(F)(F)F)c3)cs1)c(=O)n(C)c(=O)n2C [Example 58, N1-{4-[4-Fluoro-3-(trifluoromethyl)phenyl]-1,3-thiazol-2-yl}-2-(1,3,6-trimethyl-2,4-dioxo-1,2,3,4-tetrahydrofuro[2,3-d]pyrimidin-5-yl)acetamide] | – | – | < 50 | – | – | < 50
9 | Cc1oc2c(c1CC(=O)Nc1nc(-c3ccc(C(F)(F)F)c(F)c3)cs1)c(=O)n(C)c(=O)n2C [Example 59, N1-{4-[3-Fluoro-4-(trifluoromethyl)phenyl]-1,3-thiazol-2-yl}-2-(1,3,6-trimethyl-2,4-dioxo-1,2,3,4-tetrahydrofuro[2,3-d]pyrimidin-5-yl)acetamide] | – | – | 50 to 100 | – | – | < 50
10 | Cc1oc2c(c1CC(=O)Nc1nc(-c3ccc(C(F)(F)F)cc3F)cs1)c(=O)n(C)c(=O)n2C [Example 60, N1-{-4-(2-Fluoro-4-(trifluoromethyl)phenyl]-1,3-thiazol-2-yl}-2-(1,3,6-trimethyl-2,4-dioxo-1,2,3,4-tetrahydrofuro[2,3-d]pyrimidin-5-yl)acetamide] | 99.7 | 99.3 | 50 to 100 | – | – | < 50
11 | Cc1oc2c(c1CC(=O)Nc1nc(-c3cccc(C(F)(F)F)c3F)cs1)c(=O)n(C)c(=O)n2C [Example 61, N1-{4-[2-Fluoro-3-(trifluoromethyl)phenyl]-1,3-thiazol-2-yl}-2-(1,3,6-trimethyl-2,4-dioxo-1,2,3,4-tetrahydrofuro[2,3-d]pyrimidin-5-yl)acetamide] | – | – | < 50 | – | – | < 50
12 | Cc1oc2c(c1CC(=O)Nc1nc(-c3cc(F)cc(C(F)(F)F)c3)cs1)c(=O)n(C)c(=O)n2C [Example 62, N1-{4-[3-Fluoro-5-(trifluoromethyl)phenyl]-1,3-thiazol-2-yl}-2-(1,3,6-trimethyl-2,4-dioxo-1,2,3,4-tetrahydrofuro[2,3-d]pyrimidin-5-yl)acetamide] | – | – | < 50 | – | – | < 50
13 | Cc1oc2c(c1CC(=O)Nc1nc(-c3cc(C(F)(F)F)ccc3F)cs1)c(=O)n(C)c(=O)n2C [Example 63, N1-{4-[2-Fluoro-5-(trifluoromethyl)phenyl]-1,3-thiazol-2-yl}-2-(1,3,6-trimethyl-2,4-dioxo-1,2,3,4-tetrahydrofuro[2,3-d]pyrimidin-5-yl)acetamide] | 99.8 | 97.6 | – | – | – | 50 to 100
14 | Cc1oc2c(c1CC(=O)Nc1nc(-c3ccc(Cl)c(C(F)(F)F)c3)cs1)c(=O)n(C)c(=O)n2C [Example 64, N1-{4-[4-Chloro-3-(trifluoromethyl)phenyl]-1,3-thiazol-2-yl}-2-(1,3,6-trimethyl-2,4-dioxo-1,2,3,4-tetrahydrofuro[2,3-d]pyrimidin-5-yl)acetamide] | – | – | < 50 | – | – | < 50
15 | Cc1oc2c(c1CC(=O)Nc1nc(-c3cc(Cl)cc(C(F)(F)F)c3)cs1)c(=O)n(C)c(=O)n2C [Example 65, N1-{4-[3-Chloro-5-(trifluoromethyl)phenyl]-1,3-thiazol-2-yl}-2-(1,3,6-trimethyl-2,4-dioxo-1,2,3,4-tetrahydrofuro[2,3-d]pyrimidin-5-yl)acetamide] | 99.8 | 99.8 | 50 to 100 | – | – | < 50
16 | Cc1oc2c(c1CC(=O)Nc1nc(-c3ccc(C(F)(F)F)c(Cl)c3)cs1)c(=O)n(C)c(=O)n2C [Example 66, N1-{4-[3-Chloro-4-(trifluoromethyl)phenyl]-1,3-thiazol-2-yl}-2-(1,3,6-trimethyl-2,4-dioxo-1,2,3,4-tetrahydrofuro[2,3-d]pyrimidin-5-yl)acetamide] | 98.5 | 99.8 | – | 99.4 | 99.8 | –
17 | Cc1oc2c(c1CC(=O)Nc1nc(-c3ccc(OC(F)(F)F)c(F)c3)cs1)c(=O)n(C)c(=O)n2C [Example 67, N1-{4-[3-Fluoro-4-(trifluoromethoxy)phenyl]-1,3-thiazol-2-yl}-2-(1,3,6-trimethyl-2,4-dioxo-1,2,3,4-tetrahydrofuro[2,3-d]pyrimidin-5-yl)acetamide] | – | – | < 50 | – | – | < 50
18 | Cc1oc2c(c1CC(=O)Nc1nc(-c3ccc(F)c(OC(F)(F)F)c3)cs1)c(=O)n(C)c(=O)n2C [Example 68, N1-{4-[4-Fluoro-3-(trifluoromethoxy)phenyl]-1,3-thiazol-2-yl}-2-(1,3,6-trimethyl-2,4-dioxo-1,2,3,4-tetrahydrofuro[2,3-d]pyrimidin-5-yl)acetamide] | – | – | < 50 | – | – | < 50
19 | Cc1oc2c(c1CC(=O)Nc1nc(-c3ccc(Cl)c(OC(F)(F)F)c3)cs1)c(=O)n(C)c(=O)n2C [Example 69, N1-{4-[4-Chloro-3-(trifluoromethoxy)phenyl]-1,3-thiazol-2-yl}-2-(1,3,6-trimethyl-2,4-dioxo-1,2,3,4-tetrahydrofuro[2,3-d]pyrimidin-5-yl)acetamide] | – | – | < 50 | – | – | < 50
20 | Cc1oc2c(c1CC(=O)Nc1nc(-c3ccc(OC(F)(F)F)c(Cl)c3)cs1)c(=O)n(C)c(=O)n2C [Example 70, N1-{4-[3-Chloro-4-(trifluoromethoxy)phenyl]-1,3-thiazol-2-yl}-2-(1,3,6-trimethyl-2,4-dioxo-1,2,3,4-tetrahydrofuro[2,3-d]pyrimidin-5-yl)acetamide] | – | – | < 50 | – | – | < 50
21 | Cc1oc2c(c1CC(=O)Nc1nc(-c3cc(Cl)cc(OC(F)(F)F)c3)cs1)c(=O)n(C)c(=O)n2C [Example 71] | – | – | 50 to 100 | – | – | < 50
22 | Cc1oc2c(c1CC(=O)Nc1nc(-c3ccc(OC(F)F)c(Cl)c3)cs1)c(=O)n(C)c(=O)n2C [Example 72, N1-{4-[3-Chloro-4-(difluoromethoxy)phenyl]-1,3-thiazol-2-yl}-2-(1,3,6-trimethyl-2,4-dioxo-1,2,3,4-tetrahydrofuro[2,3-d]pyrimidin-5-yl)acetamide] | 100 | 100 | > 100 | – | – | < 50
